Converted amounts (≈) assume the structure as drawn.
Legend:
[1] = Solubility of the compound; assay type: physicochemical
[2] = Lipophilicity, log D of the compound at pH 7.4; assay type: physicochemical; details: buffer

Row | solubility [1] [µM] | logD [2] | SMILES
1 | 49 (≈ 14.1 µg/mL) |  | O=C(Nc1cc(Nc2ccccc2Cl)ccn1)C1CC1
2 | 46 (≈ 15.3 µg/mL) | 3.3 | O=C(Nc1cc(Nc2c(Cl)ccc3c2OCO3)ccn1)C1CC1
3 |  | 2.7 | CC(=O)Nc1cc(Nc2c(Cl)ccc3c2OCO3)ccn1

From ChEMBL document CHEMBL3817795, “Identification and optimisation of a series of N-(4-anilino-2-pyridyl)acetamide activin receptor-like kinase 1 (ALK1) inhibitors” (Medchemcomm, 2016)
